{"source": "patent US12065430B2", "about": "“Indazole compound or salt thereof” (TAIHO PHARMACEUTICAL CO., LTD., priority 2018, dated 2024)", "data": [{"target": "G12C K-Ras4B (1-169) (Homo sapiens (Human), UniProt P01116, G12C)", "sequence (P01116 other isoform, or with tags, fused parts or gaps G12C)": "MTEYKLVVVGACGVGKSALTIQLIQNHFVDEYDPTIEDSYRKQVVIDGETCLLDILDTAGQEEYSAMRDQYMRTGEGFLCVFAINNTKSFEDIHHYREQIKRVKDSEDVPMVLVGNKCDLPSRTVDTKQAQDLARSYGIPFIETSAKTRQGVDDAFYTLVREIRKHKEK", "assay": "Test of compounds on whether to bind to KRASG12C (LC-MS compound binding rate)", "conditions": "final compound concentration of 2 μM, 1 μM protein, 25° C. for 2 hours", "protocol": "Test compounds were prepared in the form of a 10 mM DMSO solution.\nK-Ras4B (1-169) and G12C K-Ras4B (1-169) proteins were mixed and diluted with a buffer (1×TBS, 0.1 mM TCEP) to prepare individual 1 μM protein solutions. A 10 mM test compound was diluted tenfold with DMSO to make a 1 mM solution, and then diluted fivefold with DMSO to make a 200 μM solution. The 200 μM solution was further diluted fivefold to make a 40 μM solution. When the final compound concentration was 10 μM, 1 μL of a 200 μM test compound was added to 19 μL of a 1 μM protein solution. When the final compound concentration was 2 μM, 1 μL of a 40 μM test compound was added to 19 μL of a 1 μM protein solution. The mixtures were stored in an incubator at 25° C. for 2 hours, and 80 μL of a 1×TBS solution containing 0.2% formic acid was added thereto to end the reaction, followed by LC-MS measurement. LC-MS measurement was performed using Xevo G2-S Q-Tof manufactured by Waters, and reverse-phase chromatography was performed with a desalting column. A mass spectrum of positive ions was obtained by electrospray. For a mass spectrum, a spectrum of a polyvalent ion was collectively converted to a molecular weight by using OpenLynx software by the MaxEnt technique, and a compound binding rate was obtained from the ratio of a signal intensity that corresponds to the molecular weight of a protein to a signal intensity that corresponds to the molecular weight of a compound binding to the protein.\nBy obtaining the compound binding rate for K-Ras4B (1-169) and the compound binding rate for G12C K-Ras4B (1-169) at the same time, information of the selectivity for G12C K-Ras4B (1-169) was obtained at the same time.\nThe test compounds were measured at their final compound concentration of 2 μM. […] Almost no compounds of the present invention binded to K-Ras4B (1-169). The “binding rate” (%) for each of K-Ras4B (1-169) and G12C K-Ras4B (1-169) refers to the ratio of the signal intensity of binded forms to the sum of the signal intensity of non-binded forms and the signal intensity of binded forms.", "values": [{"smiles": "C=CC(=O)NC1CN(C(=O)c2c(C)nc(CNc3n[nH]c4cc(Cl)c(C(C)(C)C)cc34)n2C)C1", "note": "[Example 46, N-(1-(2-(((5-(tert-butyl)-6-chloro-1H-indazol-3-yl)amino)methyl)-1,4-dimethyl-1H-imidazole-5-carbonyl)azetidin-3-yl) acrylamide]", "binding rate for G12C K-Ras4B (1-169)": "B (a binding rate of 60% or more and less than 80% is rated “B,”)"}, {"smiles": "C=CC(=O)N1CCC(NC(=O)c2c(C)nc(CNc3n[nH]c4cc(Cl)c(C(C)(C)C)cc34)n2C)CC1", "note": "[Example 47, N-(1-acryloylpiperidin-4-yl)-2-(((5-(tert-butyl)-6-chloro-1H-indazol-3-yl)amino)methyl)-1,4-dimethyl-1H-imidazole-5-carboxamide]", "binding rate for G12C K-Ras4B (1-169)": "C (a binding rate of 40% or more and less than 60% is rated “C,”)"}, {"smiles": "C=CC(=O)N1CCC(NC(=O)c2c(C)nc(CNc3n[nH]c4cc(Cl)c(C(C)(C)C)cc34)n2C)C1", "note": "(stereo not shown) [Example 48, N-(1-acryloylpyrrolidin-3-yl)-2-(((5-(tert-butyl)-6-chloro-1H-indazol-3-yl)amino)methyl)-1,4-dimethyl-1H-imidazole-5-carboxamide]", "binding rate for G12C K-Ras4B (1-169)": "B (a binding rate of 60% or more and less than 80% is rated “B,”)"}, {"smiles": "C=CC(=O)N1CC(N(C)C(=O)c2c(C)nc(CNc3n[nH]c4cc(Cl)c(C(C)(C)C)cc34)n2C)C1", "note": "[Example 49, N-(1-acryloylazetidin-3-yl)-2-(((5-(tert-butyl)-6-chloro-1H-indazol-3-yl)amino)methyl)-N,1,4-trimethyl-1H-imidazole-5-carboxamide]", "binding rate for G12C K-Ras4B (1-169)": "C (a binding rate of 40% or more and less than 60% is rated “C,”)"}, {"smiles": "C=CC(=O)N1CCN(C(=O)c2c(C)nc(CNc3n[nH]c4cc(Cl)c(C(C)(C)C)cc34)n2C)CC1", "note": "[Example 50, 1-(4-(2-(((5-(Tert-butyl)-6-chloro-1H-indazol-3-yl)amino)methyl)-1,4-dimethyl-1H-imidazole-5-carbonyl)piperazin-1-yl)prop-2-en-1-one]", "binding rate for G12C K-Ras4B (1-169)": "C (a binding rate of 40% or more and less than 60% is rated “C,”)"}, {"smiles": "C=CC(=O)N(C)C1CN(C(=O)c2c(C)nc(CNc3n[nH]c4cc(Cl)c(C(C)(C)C)cc34)n2C)C1", "note": "[Example 51, N-(1-(2-(((5-(tert-butyl)-6-chloro-1H-indazol-3-yl)amino)methyl)-1,4-dimethyl-1H-imidazole-5-carbonyl)azetidin-3-yl)-N-methylacrylamide]", "binding rate for G12C K-Ras4B (1-169)": "B (a binding rate of 60% or more and less than 80% is rated “B,”)"}, {"smiles": "C=CC(=O)N1CC(NC(=O)c2c(C)nc(CNc3n[nH]c4cc(Cl)c(C(C)(C)C)cc34)n2C)C(F)(F)C1", "note": "(stereo not shown) [Example 53, N-(1-acryloyl-4,4-difluoropyrrolidin-3-yl)-2-(((5-(tert-butyl)-6-chloro-1H-indazol-3-yl)amino)methyl)-1,4-dimethyl-1H-imidazole-5-carboxamide]", "binding rate for G12C K-Ras4B (1-169)": "B (a binding rate of 60% or more and less than 80% is rated “B,”)"}, {"smiles": "C=CC(=O)N1C[C@H](NC(=O)c2c(C)nc(CNc3n[nH]c4cc(Cl)c(C(C)(C)C)cc34)n2C)C2(CC2)C1", "note": "[Example 54, (R)—N-(5-acryloyl-5-azaspiro[2.4]heptan-7-yl)-2-(((5-(tert-butyl)-6-chloro-1H-indazol-3-yl)amino)methyl)-1,4-dimethyl-1H-imidazole-5-carboxamide]", "binding rate for G12C K-Ras4B (1-169)": "B (a binding rate of 60% or more and less than 80% is rated “B,”)"}, {"smiles": "C=CC(=O)N1C[C@@H](C)[C@@H](NC(=O)c2c(C)nc(CNc3n[nH]c4cc(Cl)c(C(C)(C)C)cc34)n2C)C1", "note": "[Example 55, N-((3R,4R)-1-acryloyl-4-methylpyrrolidin-3-yl)-2-(((5-(tert-butyl)-6-chloro-1H-indazol-3-yl)amino)methyl)-1,4-dimethyl-1H-imidazole-5-carboxamide]", "binding rate for G12C K-Ras4B (1-169)": "A (a binding rate of 80% or more is rated “A,”)"}, {"smiles": "C=CC(=O)N1C[C@@H](O)[C@@H](NC(=O)c2c(C)nc(CNc3n[nH]c4cc(Cl)c(C(C)(C)C)cc34)n2C)C1", "note": "[Example 56, N-((3S,4R)-1-acryloyl-4-hydroxypyrrolidin-3-yl)-2-(((5-(tert-butyl)-6-chloro-1H-indazol-3-yl)amino)methyl)-1,4-dimethyl-1H-imidazole-5-carboxamide]", "binding rate for G12C K-Ras4B (1-169)": "C (a binding rate of 40% or more and less than 60% is rated “C,”)"}, {"smiles": "C=CC(=O)N1C[C@@H](F)[C@@H](NC(=O)c2c(C)nc(CNc3n[nH]c4cc(Cl)c(C(C)(C)C)cc34)n2C)C1", "note": "[Example 57, N-((3S,4R)-1-acryloyl-4-fluoropyrrolidin-3-yl)-2-(((5-(tert-butyl)-6-chloro-1H-indazol-3-yl)amino)methyl)-1,4-dimethyl-1H-imidazole-5-carboxamide]", "binding rate for G12C K-Ras4B (1-169)": "C (a binding rate of 40% or more and less than 60% is rated “C,”)"}, {"smiles": "C=CC(=O)N1C[C@@H](CO)[C@@H](NC(=O)c2c(C)nc(CNc3n[nH]c4cc(Cl)c(C(C)(C)C)cc34)n2C)C1", "note": "[Example 58, N-((3R,4R)-1-acryloyl-4-(hydroxymethyl)pyrrolidin-3-yl)-2-(((5-(tert-butyl)-6-chloro-1H-indazol-3-yl)amino)methyl)-1,4-dimethyl-1H-imidazole-5-carboxamide]", "binding rate for G12C K-Ras4B (1-169)": "B (a binding rate of 60% or more and less than 80% is rated “B,”)"}, {"smiles": "C=CC(=O)N1C[C@H](NC(=O)c2c(C)nc(CNc3n[nH]c4cc(Cl)c(C(C)(C)C)cc34)n2C)[C@@H](C)C1", "note": "[Example 60, N-((3R,4S)-1-acryloyl-4-methylpyrrolidin-3-yl)-2-(((5-(tert-butyl)-6-chloro-1H-indazol-3-yl)amino)methyl)-1,4-dimethyl-1H-imidazole-5-carboxamide]", "binding rate for G12C K-Ras4B (1-169)": "C (a binding rate of 40% or more and less than 60% is rated “C,”)"}, {"smiles": "C=CC(=O)N1C[C@H](NC(=O)c2c(C)nc(CNc3n[nH]c4cc(Cl)c(C(C)(C)C)cc34)n2C)[C@H](OC)C1", "note": "[Example 61, N-((3S,4R)-1-acryloyl-4-methoxypyrrolidin-3-yl)-2-(((5-(tert-butyl)-6-chloro-1H-indazol-3-yl)amino)methyl)-1,4-dimethyl-1H-imidazole-5-carboxamide]", "binding rate for G12C K-Ras4B (1-169)": "B (a binding rate of 60% or more and less than 80% is rated “B,”)"}, {"smiles": "C=CC(=O)N1C[C@H](NC(=O)c2c(C)nc(CNc3n[nH]c4cc(Cl)c(C(C)(C)C)cc34)n2C)[C@@H](O)C1", "note": "[Example 62, N-((3S,4S)-1-acryloyl-4-hydroxypyrrolidin-3-yl)-2-(((5-(tert-butyl)-6-chloro-1H-indazol-3-yl)amino)methyl)-1,4-dimethyl-1H-imidazole-5-carboxamide]", "binding rate for G12C K-Ras4B (1-169)": "A (a binding rate of 80% or more is rated “A,”)"}, {"smiles": "C=CC(=O)N1C[C@H](NC(=O)c2c(C)nc(CNc3n[nH]c4cc(Cl)c(C(C)(C)C)cc34)n2C)[C@@H](OC)C1", "note": "[Example 63, N-((3S,4S)-1-acryloyl-4-methoxypyrrolidin-3-yl)-2-(((5-(tert-butyl)-6-chloro-1H-indazol-3-yl)amino)methyl)-1,4-dimethyl-1H-imidazole-5-carboxamide]", "binding rate for G12C K-Ras4B (1-169)": "B (a binding rate of 60% or more and less than 80% is rated “B,”)"}, {"smiles": "C=CC(=O)N1C[C@@H](CC#N)[C@@H](NC(=O)c2c(C)nc(CNc3n[nH]c4cc(Cl)c(C(C)(C)C)cc34)n2C)C1", "note": "[Example 65, N-((3R,4R)-1-acryloyl-4-(cyanomethyl)pyrrolidin-3-yl)-2-(((5-(tert-butyl)-6-chloro-1H-indazol-3-yl)amino)methyl)-1,4-dimethyl-1H-imidazole-5-carboxamide]", "binding rate for G12C K-Ras4B (1-169)": "B (a binding rate of 60% or more and less than 80% is rated “B,”)"}, {"smiles": "C=CC(=O)N1C[C@@H](CF)[C@@H](NC(=O)c2c(C)nc(CNc3n[nH]c4cc(Cl)c(C(C)(C)C)cc34)n2C)C1", "note": "[Example 66, N-((3R,4R)-1-acryloyl-4-(fluoromethyl)pyrrolidin-3-yl)-2-(((5-(tert-butyl)-6-chloro-1H-indazol-3-yl)amino)methyl)-1,4-dimethyl-1H-imidazole-5-carboxamide]", "binding rate for G12C K-Ras4B (1-169)": "A (a binding rate of 80% or more is rated “A,”)"}, {"smiles": "C=CC(=O)N1C[C@@H](COC)[C@@H](NC(=O)c2c(C)nc(CNc3n[nH]c4cc(Cl)c(C(C)(C)C)cc34)n2C)C1", "note": "[Example 67, N-((3R,4R)-1-acryloyl-4-(methoxymethyl)pyrrolidin-3-yl)-2-(((5-(tert-butyl)-6-chloro-1H-indazol-3-yl)amino)methyl)-1,4-dimethyl-1H-imidazole-5-carboxamide]", "binding rate for G12C K-Ras4B (1-169)": "A (a binding rate of 80% or more is rated “A,”)"}]}]}
